Patent publication US10174072B2, “Antileishmanial compositions and methods of use” (Ohio State Innovation Foundation, priority 2011, dated 2019)
Entries after “also recorded” stand apart in the source; their conditions may differ. Read-outs that look alike come from different tables or passages of the source.

Tests used:
[1] = test system: promastigotes of L. mexicana; assay: Promastigote assay (L. mexicana, flow cytometry with propidium iodide); format: cell-based, Leishmania mexicana; conditions: for antileishmanial activity against promastigotes (in words): 48 h exposure; for IC50: Leishmania mexicana, 48 h, linear regression from 1, 10, 50 and 100 μg/mL
Procedure: Leishmania mexicana (MNYC/BZ/62/M379) was maintained by serial passage of amastigotes inoculated subcutaneously into the shaven rumps of 129SvE mice and was obtained by in vitro culture of amastigotes in RPMI-1640 supplemented with 10% fetal calf serum (FCS, Sigma-Aldrich Corporation, St. Louis, Mo.) and incubated at 28° C. All work including experimental animals was approved by the Institutional Animal Care and Use Committee (IACUC) of The Ohio State University.
One million log phase promastigotes of L. mexicana were seeded in 1 mL of complete RPMI-1640 medium, and parasite numbers, and their mobility and morphology were measured from 24 and 48 h. This was performed by flow cytometry measurements using experimental and control groups of parasites stained with propidium iodide and with Quillaja saponaria saponin as positive control, as reported in the literature. The test compounds isolated from P. andrieuxii were compared with a positive control: sodium stibogluconate, a pentavalent antimonial drug.

[2] = test system: intracellular parasites (L. mexicana amastigotes); assay: Electron microscopy of treated intracellular parasites; format: cell-based, Leishmania mexicana; conditions: 100 μM, 2 h
Procedure: Intracellular parasites were co-cultured, as previously described herein, by treating a 100 μM concentration of each pure compound for 2 h and suspending them in glutaraldehyde. Samples were further processed in an electron microscopy unit as follows: Incubation steps were carried out on a Lab-Line orbital shaker operating at 700 rpm (Barnstead/Thermolyne, Melrose Park, Ill.). After the initial fixation in 3% buffered glutaraldehyde, cell pellets were washed twice with sodium cacodylate buffer (pH 7.4, 10 minutes each) and spun down after each wash at 1500 rpm for 5 min. Cell samples were then post-fixed in 1% osmium tetroxide in sym-collidine buffer (pH 7.6) for 1 h at room temperature. Following two washes with sym-collidine buffer (10 min each) the cell pellet was stained with a saturated aqueous uranyl acetate solution (pH 3.3) for 1 h. Cell pellets were dehydrated in a graded EtOH series up to absolute (10 min each). Acetone was used as the transitional solvent, two changes for 10 min each. The cell suspensions were infiltrated overnight with a 1:1 mixture of acetone and Spurr's epoxy resin (Electron Microscopy Sciences, Fort Washington, Pa.). Finally, cell pellets were placed into BEEM™ embedding capsules containing 100% Spurr's resin. Polymerization of epoxy blocks was carried out at 70° C. overnight. Polymerized blocks were sectioned with a Leica Ultraut UCT ultramicrotome (Leica Microsystem GmbH, Wein, Austria). Methylene Blue-Basic Fuschin stained semi-thin (750 nm) sections were evaluated and two representative areas were thin-sectioned for ultrastructural examination. Ultrathin (80 nm) sections were collected on 200 mesh copper grids (Electron Microscopy Sciences) and post-stained with lead citrate (3 min).

[3] = test system: Leishmania donovani (Strain LV9); assay: In vivo activity of liposomal preparation of compound 1, parasite loads in liver and spleen; design: species or system BALB/c mice; conditions: 46.1 μg compound 1, tail vein, one week after treatment
Procedure: Liposomes were made by rehydration of a lipid cake. First, hydrogenated soy phosphatidylcholine (Avanti Polar Lipids, Inc., Alabaster, Ala.), cholesterol (Avanti Polar Lipids), 1,2-distearoyl-sn-glycero-3-[phospho-rac-(1-glycerol)] (“DSPG”; Avanti Polar Lipids,), and α-tocopherol (Sigma-Aldrich Corporation, St. Louis, Mo.) were dissolved in a chloroform and methanol (9:1, v/v). Compound 1 was dissolved in the lipid solution at a weight ratio of compound 1 to lipid of 1:9 (i.e. for clarity, the solution comprised 10% by weight of compound 1 and 90% by weight of the lipid solution). The solution was placed on at rotary evaporator for about 30 minutes and the liquid was completely evaporated. The lipids were reconstituted into liposomes in deionized water (3 mL) for 30 minutes in a 60° C. water bath, followed by 3 freeze-thaw cycles. […] Loading of liposomes was verified and quantified by HPLC. […]
One week after the treatment, the mice were euthanized and parasite loads in the liver and spleen were determined. Parasite loads in the spleen and liver were quantified as previously described (Murray, H. W. 2000. Infect Immun. 68: 6294-6299). Briefly, the liver and spleen impression smears were stained using Giemsa and parasite loads we quantified microscopically. LDU is determined by the number of amastigotes per 1000 nuclei multiplied by the weight (gm) of the liver or spleen. […]

[4] = test system: splenocytes stimulated with L. donovani antigen; assay: Splenocyte T cell proliferation (Alamar blue) and cytokine ELISA after L. donovani antigen stimulation; format: in vivo, BALB/c mice; conditions: liposomal preparation
Procedure: One week after the treatment, the mice were euthanized and parasite loads in the liver and spleen were determined. Parasite loads in the spleen and liver were quantified as previously described (Murray, H. W. 2000. Infect Immun. 68: 6294-6299). Briefly, the liver and spleen impression smears were stained using Giemsa and parasite loads we quantified microscopically. LDU is determined by the number of amastigotes per 1000 nuclei multiplied by the weight (gm) of the liver or spleen. At this time, spleen cell suspensions were prepared and these cells were stimulated in vitro with 20 microgram/ml of Leishmania donovani antigen for 48-72 hrs to stimulate lymphocyte release. Proliferation of spleen cells were determined by Alamar blue assays and levels of cytokines including IFN-gamma in supernatant were quantified by ELISA using commercially available reagents from Biolegend and BD Biosciences.
T cell proliferation was determined as previously described (Rosas, L. E., et al., 2006. Am. J. Pathol. 168: 158-169.). Briefly, 5×10^5 cells were added in quadruplicate to the wells of sterile 96-well, flat-bottom tissue culture plates and stimulated with freeze-thawed L. donovani Ag (20 μg/ml). The proliferation responses were measured by Alamar blue assay (Ansar-Ahmed, A., et al., 1994. J. Immunol. Methods 170: 211-214.). Supernatants were collected after 72 hours of incubation at 37° C. and analyzed for the production of IFN-γ and IL-10 by standard ELISA methods (BD Pharmingen, Inc., San Diego, Calif.).

[5] = test system: L. mexicana amastigotes in bone marrow-derived macrophages; assay: Amastigote assay in infected bone marrow-derived macrophages; format: cell-based, Leishmania mexicana; conditions: for IC50: Leishmania mexicana, BMDM, in Mus musculus, 48 h, read-out: Amastigote IC50, 48 hours, infected BMDM from C57BL/6 mice; for antileishmanial activity against the amastigote stage (in words): 48 h treatment
Source text: Bone marrow derived macrophages were obtained from C57BL/6 mice. Bone marrow-derived macrophages (BMDM) (0.5×10^6) were adhered on top of glass rounded coverslips deposited at the bottom of individual plate's well (24 well tissue culture plate, Corning, Inc.). Next, macrophages were infected overnight with 2.5×10^6 stationary phase promastigotes of the L. mexicana (ratio 5:1). After this period, cells were extensively washed with Hank's balanced salt solution (HBSS) to eliminate non-phagocytosed parasites, and, after treatment with test compounds for 48 hours, cells were stained with Giemsa stain (Sigma). In each experiment, infection rates were recorded by counting the number of parasites in 100 macrophages on each slide in triplicate in a blinded fashion.

[6] = 48 hours in culture, read-out: Promastigote IC50

Structure (SMILES)	antileishmanial activity against promastigotes (in words) [1]	electron microscopy findings in intracellular parasites [2]	IC50 [1, 6]	IC50 [5]	antileishmanial activity against the amastigote stage (in words) [5]	also measured
CC(=O)C1=CC[C@H]2[C@@H]3CCC4=CC(=O)CC[C@]4(C)[C@H]3C[C@@H](O)[C@]12C [Compound 15, 6,7-dihydroneridienone]	potent; also recorded: inhibitory effects	morphological abnormalities and destruction of the amastigotes	–	–	–	–
C=C(CCC=C(C)C)[C@H]1CC[C@H]2[C@@H]3CCC4=CC(=O)CC[C@]4(C)[C@H]3CCC12C (stereo in doubt) [Compound 1, (8S,9S,10R,13R,14S,17R)-cholest-4,20,24-trien-3-one]	significant leishmanicidal activity; also recorded: inhibitory effects	morphological abnormalities and destruction of the amastigotes	30 µM	3.3 µM	–	activity relative to cholest-4-en-3-one (4), promastigote bioassay [1]: almost three times more active; parasite load in hepatic cells [3]: decreased parasite load; parasite load in splenic cells [3]: decreased parasite load; levels of IL-10 secreted from splenocytes ([4]; Leishmanial antigen stimulation): no significant change; secretion of IFN-γ from splenocytes ([4]; Leishmanial antigen stimulation, P value<0.01): significant increase; T cell proliferation of splenocytes upon Leishmanial antigen stimulation ([4]; vs group without compound 1, P value<0.0001): significant increase
CC[C@H](/C=C/[C@@H](C)[C@H]1CC[C@H]2[C@@H]3CCC4=CC(=O)CC[C@]4(C)[C@H]3CC[C@]12C)C(C)C [Compound 5, stigmast-4,22-dien-3-one]	inactive	–	–	–	inactive	–
C=C(CCC=C(C)C)[C@H]1CC[C@H]2[C@@H]3CC=C4C[C@@H](O)CC[C@]4(C)[C@H]3CC[C@]12C [Compound 7, cholest-5,20,24-trien-3β-ol]	inactive	–	> 262 µM	14.5 µM	significant activity; also recorded: active	–
CC[C@H](CC[C@@H](C)[C@H]1CC[C@H]2[C@@H]3CCC4=CC(=O)CC[C@]4(C)[C@H]3CC[C@]12C)C(C)C [Compound 6, stigmast-4-en-3-one]	inactive	–	–	–	inactive	–
CC(=O)C1=CC[C@H]2[C@@H]3C=CC4=CC(=O)CC[C@]4(C)[C@H]3C[C@@H](O)[C@]12C [Compound 16, neridienone]	significant leishmanicidal activity; also recorded: inhibitory effects	morphological abnormalities and destruction of the amastigotes	–	–	–	IC50 ([1]; read-out: Promastigote IC50, 48 hours in culture): 9.2 µM
C=C(CC[C@@H](C)[C@H]1CC[C@H]2[C@@H]3CCC4=CC(=O)CC[C@]4(C)[C@H]3CC[C@]12C)C(C)C [Compound 3, 24-methylcholesta-4,24(28)-dien-3-one]	significant leishmanicidal activity; also recorded: inhibitory effects	morphological abnormalities and destruction of the amastigotes	24 µM	3.5 µM	–	–
CC(C)CCC[C@@H](C)[C@H]1CC[C@H]2[C@@H]3CCC4=CC(=O)CC[C@]4(C)[C@H]3CC[C@]12C [Compound 4, cholest-4-en-3-one]	inhibitory effects	morphological abnormalities and destruction of the amastigotes	81 µM	0.03 µM	–	potency relative to pentostam, amastigote stage ([5]; ratio of IC50 values): ~100 times
